Laboratory results as given in patent US20240239798A1, “SALTS AND POLYMORPHS OF M[…] 3-DEUTEROMITRAGYNINE” (priority 2021, published 2024).
≈ marks a conversion by molar mass, not a printed value. Counter-ions that a name gives are not always drawn. Like-named read-outs stand apart in the source and are kept apart here.

Tests used:
[1] = Solubility of 3-DM free base and 3-DM Glycolate Type A in IPA and IPA/H2O (19:1, v/v) at 5, 20, 40, 60° C., 24 hrs; type: physicochemical
[2] = Approximate solubility of amorphous 3-DM free base starting material in 27 solvent systems at RT; type: physicochemical
Description: The approximate solubility of the free base starting material was determined in 27 solvent systems at RT. Approximate 2 mg of material was added into a 3-mL glass vial. […] The solubility results summarized in Table 10 were used to guide the solvent selection in salt screening design.

[3] = type: physicochemical; settings: for solubility: organic solvent or mixture, read-out: Approximate solubility
Description: In the first batch (100 mg scale), pure IPA was used as solvent. […] Detailed preparation procedures for the 3 scaled-up batches can be found below.

[4] = cited from earlier work
[5] = Background statements on solubility and gel formation in aqueous solution; type: physicochemical
[6] = Batch 810081-28-B

## [2H][C@@]12C[C@H](/C(=C\OC)C(=O)OC)[C@H](CC)CN1CCc1c2[nH]c2cccc(OC)c12 [3-DM free base, 3-deuteromitragynine]
[1]; IPA and IPA/H2O (19:1, v/v), each temperature (5-60° C.)
  Solubility compared with Glycolate Type A: much higher than that of Glycolate Type A
[2]; organic solvent or mixture, thermodynamic from solid, 1,4-dioxane, RT
  solubility: > 42 mg/mL
[2]; organic solvent or mixture, thermodynamic from solid, 2-MeTHF, RT
  solubility: > 48 mg/mL
[2]; organic solvent or mixture, thermodynamic from solid, ACN, RT
  solubility: > 46 mg/mL
[2]; organic solvent or mixture, thermodynamic from solid, Acetone, RT
  solubility: > 38 mg/mL
[2]; organic solvent or mixture, thermodynamic from solid, Acetone/n-Heptane (1:1), RT
  solubility: > 38 mg/mL
[2]; organic solvent or mixture, thermodynamic from solid, Acetone/n-Heptane (1:4), RT
  solubility: > 46 mg/mL
[2]; organic solvent or mixture, thermodynamic from solid, Acetone/n-Heptane (1:9), RT
  solubility: 7.7 to 23 mg/mL (≈ 19.3 to 57.6 mM)
[2]; organic solvent or mixture, thermodynamic from solid, Acetone/n-Heptane (1:15), RT
  solubility: 4 to 6.7 mg/mL (≈ 10 to 16.8 mM)
[2]; organic solvent or mixture, thermodynamic from solid, Acetone/n-Heptane (4:1), RT
  solubility: > 42 mg/mL
[2]; organic solvent or mixture, thermodynamic from solid, CHCl3, RT
  solubility: > 46 mg/mL
[2]; organic solvent or mixture, thermodynamic from solid, DCM, RT
  solubility: > 42 mg/mL
[2]; organic solvent or mixture, thermodynamic from solid, DMAc, RT
  solubility: > 46 mg/mL
[2]; organic solvent or mixture, thermodynamic from solid, DMSO, RT
  solubility: > 34 mg/mL
[2]; organic solvent or mixture, thermodynamic from solid, EtOAc, RT
  solubility: > 40 mg/mL
[2]; organic solvent or mixture, thermodynamic from solid, EtOH, RT
  solubility: > 38 mg/mL
[2]; organic solvent or mixture, thermodynamic from solid, IPA, RT
  solubility: > 36 mg/mL
[2]; organic solvent or mixture, thermodynamic from solid, IPA/H2O (4:1), RT
  solubility: 7 to 21 mg/mL (≈ 17.5 to 52.6 mM)
[2]; organic solvent or mixture, thermodynamic from solid, IPA/H2O (9:1), RT
  solubility: 23 to 46 mg/mL (≈ 57.6 to 115 mM)
[2]; organic solvent or mixture, thermodynamic from solid, IPAc, RT
  solubility: > 42 mg/mL
[2]; organic solvent or mixture, thermodynamic from solid, MIBK, RT
  solubility: > 40 mg/mL
[2]; organic solvent or mixture, thermodynamic from solid, MTBE, RT
  solubility: > 46 mg/mL
[2]; organic solvent or mixture, thermodynamic from solid, MeOH, RT
  solubility: > 46 mg/mL
[2]; organic solvent or mixture, thermodynamic from solid, NMP, RT
  solubility: > 44 mg/mL
[2]; organic solvent or mixture, thermodynamic from solid, THF, RT
  solubility: > 40 mg/mL
[2]; organic solvent or mixture, thermodynamic from solid, Toluene, RT
  solubility: > 36 mg/mL
[2]; organic solvent or mixture, thermodynamic from solid, n-Heptane, RT
  solubility: < 2.3 mg/mL
[2]; water, thermodynamic from solid, H2O, RT
  solubility: < 2.3 mg/mL
[3]; EtOAc
  solubility: > 40 mg/mL
[3]; EtOH
  solubility: > 38 mg/mL
[3]; IPA, approximate
  Solubility in IPA (in words): high solubility
[3]; IPA
  solubility: > 36 mg/mL
[3]; MeOH
  solubility: > 46 mg/mL
[3]; acetone
  solubility: > 38 mg/mL
[3]; acetone/n-heptane (1:1) v/v
  solubility: > 42 mg/mL

## CC[C@@H]1CN2CCc3c([nH]c4cccc(OC)c34)[C@@H]2C[C@@H]1/C(=C\OC)C(=O)OC [Mitragynine]
[4]; acetone, acetic acid, alcohols, chloroform and diethyl ether
  Solubility in conventional organic solvents (in words): soluble
[4]; water
  Solubility in water (in words): insoluble

## O=C(O)CO.[2H][C@@]12C[C@H](/C(=C\OC)C(=O)OC)[C@H](CC)CN1CCc1c2[nH]c2cccc(OC)c12 [3-DM Glycolate]
Grind, 4 experiments
  Results (forms obtained): Glycolate Type A
Liquid-vapor diffusion, 12 experiments
  Results (forms obtained): Glycolate Type A, B, D, A + C
Slow cooling, 6 experiments
  Results (forms obtained): Glycolate Type A, B, C
Slow evaporation, 7 experiments
  Results (forms obtained): Glycolate Type A, C, E
Slurry at 50° C., 16 experiments
  Results (forms obtained): Glycolate Type A, C
Slurry at RT, 25 experiments
  Results (forms obtained): Glycolate Type A
Solid vapor diffusion, 12 experiments
  Results (forms obtained): Glycolate Type A, C

## [2H]C12CC(C(=COC)C(=O)OC)C(CC)CN1CCc1c2[nH]c2cccc(OC)c12 (centres unmarked) [3-DM Free Base Type A]
[1]
  Solubility in IPA/H2O (19:1, v/v) compared with IPA: higher than IPA
[1]; IPA/H2O (19:1, v/v) at 60° C.
  equilibrium solubility: 73.94 mg/mL

## CC[C@@H]1CN2CCc3c([nH]c4cccc(OC)c34)[C@H]2C[C@@H]1/C(=C\OC)C(=O)OC (stereo in doubt) [mitragynine hydrochloride]
[4]; aqueous solution
  Behaviour in aqueous solution: form a gel

## Cl.[2H]C12CC(C(=COC)C(=O)OC)C(CC)CN1CCc1c2[nH]c2cccc(OC)c12 (centres unmarked) [3-DM hydrochloride salt]
[5]
  Behaviour in aqueous solution: forms a gel

## O=C(O)CO.[2H]C12CC(C(=COC)C(=O)OC)C(CC)CN1CCc1c2[nH]c2cccc(OC)c12 (centres unmarked)
[6]; sonication time 0 s
  D10: 7.51 μm
  D50: 19.96 μm
  D90: 58.66 μm
  MV: 28.68 μm
[6]; sonication time 30 s (30 Watt)
  D10: 5.92 μm
  D50: 15.93 μm
  D90: 47.05 μm
  MV: 22.77 μm
